Five molecules from ChEMBL document CHEMBL4334552, “Discovery of BMS-986260, a Potent, Selective, and Orally Bioavailable TGFβR1 Inhibitor as an Immuno-oncology Agent” (ACS Med Chem Lett, 2020) can be followed below.

In brackets after ≈: the same amount, converted by molar mass.

Data set [1] is described as follows: Metabolic stability of compound in human liver microsomes assessed as compound remaining. The format is ADME, Microsome.
The target of another data set is TGF-beta receptor type-2 (Homo sapiens, UniProt P37173). Kind of data set: Inhibition of wild type His-tagged TGFBR2 kinase domain (unknown origin) incubated for 1 hr by HTRF analysis.
Chain of TGF-beta receptor type-2 (P37173 whole entry, the tested form may be a part): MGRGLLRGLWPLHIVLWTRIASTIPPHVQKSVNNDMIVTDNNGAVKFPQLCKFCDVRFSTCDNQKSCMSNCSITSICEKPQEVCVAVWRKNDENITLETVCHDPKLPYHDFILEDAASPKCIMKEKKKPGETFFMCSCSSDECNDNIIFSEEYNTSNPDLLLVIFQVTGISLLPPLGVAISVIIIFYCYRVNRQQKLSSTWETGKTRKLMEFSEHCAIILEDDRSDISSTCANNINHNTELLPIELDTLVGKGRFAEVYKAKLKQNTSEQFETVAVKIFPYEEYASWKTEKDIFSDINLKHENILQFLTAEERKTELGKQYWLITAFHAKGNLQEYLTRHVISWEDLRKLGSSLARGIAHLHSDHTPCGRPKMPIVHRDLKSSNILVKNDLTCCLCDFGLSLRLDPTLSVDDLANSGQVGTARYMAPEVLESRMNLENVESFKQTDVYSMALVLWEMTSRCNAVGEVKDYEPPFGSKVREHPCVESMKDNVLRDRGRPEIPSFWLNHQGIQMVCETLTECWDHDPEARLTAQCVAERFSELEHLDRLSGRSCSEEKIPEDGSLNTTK
A short description of data set [2]: Metabolic stability of compound in rat liver microsomes assessed as compound remaining after 10 mins. The format is ADME, Microsome. Conditions: read-out: Stability.
The nature of data set [3]: Metabolic stability of compound in mouse liver microsomes assessed as compound remaining. The format is ADME, Microsome.
Data set [4] can be described thus: Aqueous solubility of the compound at pH 6.5. The data set is classed as physicochemical. Conditions: buffer.
Data set [5] is described as follows: AUC (0 to 24 hrs) in mouse at 10 mg/kg, po. The data set is classed as ADME, organism-based. The arrangement: dose 10 mg/kg, time < 24 hr, route oral. Particulars: in vivo.
A short description of data set [6]: Solubility of compound in crystalline form at pH 6.5. The format is physicochemical.
The target in data set [7] is TGF-beta receptor type-1 (Homo sapiens, UniProt P36897, T204D). Kind of data set: Inhibition of His-tagged TGFBR1 kinase domain T204D mutant (unknown origin) incubated for 1 hr by HTRF analysis.
Chain of TGF-beta receptor type-1 (Homo sapiens, UniProt P36897, T204D) (P36897 34-503 T204D limits assumed): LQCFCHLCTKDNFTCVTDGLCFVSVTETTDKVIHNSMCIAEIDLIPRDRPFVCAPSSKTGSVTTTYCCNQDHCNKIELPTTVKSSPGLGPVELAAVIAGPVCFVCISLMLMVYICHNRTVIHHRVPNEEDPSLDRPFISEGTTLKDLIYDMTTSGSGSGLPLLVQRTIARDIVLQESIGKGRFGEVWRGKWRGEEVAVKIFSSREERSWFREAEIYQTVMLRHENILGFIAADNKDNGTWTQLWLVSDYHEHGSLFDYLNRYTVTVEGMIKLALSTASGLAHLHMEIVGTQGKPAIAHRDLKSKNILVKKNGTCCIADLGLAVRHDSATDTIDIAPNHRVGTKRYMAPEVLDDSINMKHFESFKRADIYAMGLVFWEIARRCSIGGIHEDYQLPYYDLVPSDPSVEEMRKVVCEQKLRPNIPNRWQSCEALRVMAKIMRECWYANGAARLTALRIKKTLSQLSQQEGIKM
Data set [8] has as its target T1, TGF-beta receptor type-1 (Homo sapiens, UniProt P36897).
T1 sequence (P36897 whole entry): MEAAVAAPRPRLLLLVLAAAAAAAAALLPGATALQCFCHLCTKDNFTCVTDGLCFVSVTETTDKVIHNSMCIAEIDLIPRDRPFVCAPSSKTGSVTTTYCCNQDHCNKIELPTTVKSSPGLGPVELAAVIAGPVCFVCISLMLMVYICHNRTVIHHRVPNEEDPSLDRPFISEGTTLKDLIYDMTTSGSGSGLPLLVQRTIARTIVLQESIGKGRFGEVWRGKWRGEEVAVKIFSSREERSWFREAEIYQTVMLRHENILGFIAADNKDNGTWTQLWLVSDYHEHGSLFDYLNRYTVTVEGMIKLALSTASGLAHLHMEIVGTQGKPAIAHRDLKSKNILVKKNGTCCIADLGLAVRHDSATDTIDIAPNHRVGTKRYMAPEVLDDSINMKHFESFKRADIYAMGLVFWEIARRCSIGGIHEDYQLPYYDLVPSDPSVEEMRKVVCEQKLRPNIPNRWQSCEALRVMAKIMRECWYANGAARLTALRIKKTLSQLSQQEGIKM
Kind of data set: Inhibition of TGFBR1 in TGFbeta-stimulated human NHLF cells assessed as reduction in SMAD2 nuclear translocation.

With `N#Cc1cnc2ccc(-c3c(-c4ccc(F)cc4)ncn3CC(F)F)nn12`, the results for the Stability in data set [1] and in data set [3] were 75% and 89%, respectively. The same molecule yielded an IC50 at TGF-beta receptor type-2 of more than 15 µM. Moreover, the remaining at 10 min in data set [2] amounted to 96%. Besides, the solubility entry in [4] is given as “Insoluble”.
`Cc1cccc(-c2ncn(CC(F)F)c2-c2ccc3ncc(C(N)=O)n3c2)n1`: the Stability came out at 97% in data set [1] and 65% in data set [3]. This molecule registered an AUC(0-t) at 24 h in data set [5] of 2 µM·h. The remaining at 10 min in data set [2] is 74%.
Take `N#Cc1cnc2ccc(-c3c(-c4ccc(F)cc4)ncn3CCO)nn12`: the Stability was 93% in data set [1] and 86% in data set [3]. Besides, the IC50 at TGF-beta receptor type-2 was more than 15 µM. In addition, the remaining at 10 min in [2] stood at 100%. The same molecule registered a solubility in data set [6] of 138 µg/mL (≈ 396 µM).
With `NC(=O)c1cnc2ccc(-c3c(-c4ccc(F)cc4)ncn3CC(F)F)nn12`, the Stability in data set [1] and in data set [3] was 100% each time. Also, in [5], the AUC(0-t) at 24 h came to 28 µM·h. The remaining at 10 min in data set [2] was 100%.
For `Cc1cccc(-c2ncn(CC(F)F)c2-c2ccc3nccn3c2)n1`, the IC50 on TGF-beta receptor type-1 [7] is 1 to 10 nM; at TGF-beta receptor type-1 [8], 90 nM. For the same molecule, the Stability in data set [1] stood at 78%; in [3], 54%. Further, in data set [2], the remaining at 10 min is 31%.
